In brackets after ≈: the same amount, converted by molar mass. Activity calls are given as the source filed them. The rule behind the calls is not given here.
Assays:
Staphylococcus aureus = assay: Antimicrobial activity against Staphylococcus aureus at 50 to 100 ug/disk; format: functional, organism-based
Pseudomonas aeruginosa = assay: Antimicrobial activity against Pseudomonas aeruginosa at 50 to 100 ug/disk; format: functional, organism-based
Escherichia coli = assay: Antimicrobial activity against Escherichia coli at 50 to 100 ug/disk; format: functional, organism-based
MCF7 = assay: Cytotoxicity against human MCF7 cells; format: functional, cell-based
CCRF-CEM = assay: Cytotoxicity against human CCRF-CEM cells; format: functional, cell-based
HCT-116 = assay: Cytotoxicity against human HCT116 cells; format: functional, cell-based

Compound | Activity (Staphylococcus aureus) | Activity (Pseudomonas aeruginosa) | Activity (Escherichia coli) | IC50 (MCF7) [µg/mL] | IC50 (CCRF-CEM) [µg/mL] | IC50 (HCT-116) [µg/mL]
COC1=C(Br)[C@H](O)[C@@]2(C=C1Br)CC(C(=O)NCCCOc1c(Br)cc(C(O)CNC(C)=O)cc1Br)=NO2 (some centres not stated) [APLYSINAMISINE III] | Active | Active | Active | 30 (≈ 38.7 µM) | 6 (≈ 7.74 µM) | 10 (≈ 12.9 µM)
COC1=C(Br)[C@H](O)[C@@]2(C=C1Br)CC(C(=O)NCCCCCNC(=N)N)=NO2 [APLYSINAMISINE II] | Active | Active | Active | > 50 | > 50 | 10 (≈ 19.6 µM)
COC1=C(Br)[C@H](O)[C@@]2(C=C1Br)CC(C(=O)NC/C=C\c1c[nH]c(N)n1)=NO2 [APLYSINAMISINE I] | Active | Active | Active | > 50 | > 50 | –

Reference: ChEMBL document CHEMBL1148168, “The structures of aplysinamisines I, II, and III; new bromotyrosine-derived alkaloids from the Caribbean sponge Aplysina cauliformis” (J Nat Prod, 1993)
